Laboratory results taken from patent US12171753B2, “Crystalline forms of ALDH2 modulators” (SOPHROSYNE PHARMACEUTICALS LIMITED, priority 2021, dated 2024).

Assays:
[1] = test system: subject suffering from alcohol use disorder; experiment: Pharmaceutical composition administered to a subject suffering from alcohol use disorder; format: in vivo
Procedure: (§1) [drawing 31] and trifluorotriiodobenzene is administered to a subject suffering from alcohol use disorder. […] The subject is also found to have less cravings on the Visual Analogue Scale of Craving, which has 4 questions to assess domains of alcohol craving: the intention to drink, loss of control, relief craving, and urge intensity with a 0-20 point visual analogue scale for each item, with 0 indicating no craving and 20 indicating severe craving.
as §1, with “32]” for “31] and trifluorotriiodobenzene”

[2] = Polymorphic screen: suspending 50 mg of compound in solvent, suspension outcome; format: physicochemical; conditions: left overnight
Procedure: The polymorphic screening of the compound of Formula IV-I was performed by suspending 50 mg of the compound of Formula IV-I in each of the solvents as described in Table 12 at a volume of 1.5 mL for all but water (1 mL) in a separate vial. The vials were sealed and the suspensions were left overnight. In the following day, the vials with the compound of Formula IV-I dissolved were opened and the solutions were left to evaporate at room temperature. The solid materials were collected after the complete evaporation of the solvent. In the vials where the compound of Formula IV-I was not fully dissolved, the mixtures were left to slurrying for another 96 h. The slurries were filtered and the obtained solids were analyzed.

Compound: C[S+]([O-])C(=O)N1CCC(O)CC1 (centres unmarked) [drawing 31]
- Cravings on the Visual Analogue Scale of Craving ([1]; 4 questions, 0-20 point scale per item): less cravings
- Craving scale after 2 weeks of treatment ([1]; after 2 weeks of being treated): reduction in the craving scale
- Alcohol consumed over a 90 day period ([1]; compared to a 90 day period prior to treatment): consume less alcohol
- Percentage of no heavy drinking days ([1]; during the period of treatment (e.g., 1 to 13 weeks)): increase in the percentage of no heavy drinking days
- Number of drinks consumed in the natural environment ([1]; first 13 days of medication period, timeline follow-back interview): reduction in the number of drinks
- Alcohol drinking of the treated subject ([1]; subject with alcohol use disorder): drink less or no alcohol

Compound: C[S+]([O-])C(=O)N1CCC(O)CC1 (centres unmarked) [Formula IV-I, 1-S-Methyl 1-S-oxo 4-hydroxy-1-piperidinecarbothioate]
- Suspension outcome ([2]; 50 mg in 1 mL H2O): Dissolved
- Suspension outcome ([2]; 50 mg in 1.5 mL 1-propanol): Slurry
- Suspension outcome ([2]; 50 mg in 1.5 mL 2-propanol): Slurry
- Suspension outcome ([2]; 50 mg in 1.5 mL Acetone): Slurry
- Suspension outcome ([2]; 50 mg in 1.5 mL Acetonitrile): Slurry
- Suspension outcome ([2]; 50 mg in 1.5 mL Chloroform): Dissolved
- Suspension outcome ([2]; 50 mg in 1.5 mL Cyclohexane): Slurry
- Suspension outcome ([2]; 50 mg in 1.5 mL Dichloromethane): Dissolved
- Suspension outcome ([2]; 50 mg in 1.5 mL EtOAc): Slurry
- Suspension outcome ([2]; 50 mg in 1.5 mL EtOH): Dissolved
- Suspension outcome ([2]; 50 mg in 1.5 mL Ethyl ether): Slurry
- Suspension outcome ([2]; 50 mg in 1.5 mL Isopropyl acetate): Slurry
- Suspension outcome ([2]; 50 mg in 1.5 mL MeOH): Dissolved
- Suspension outcome ([2]; 50 mg in 1.5 mL Methyl acetate): Slurry
- Suspension outcome ([2]; 50 mg in 1.5 mL Nitromethane): Dissolved
- Suspension outcome ([2]; 50 mg in 1.5 mL Octane): Slurry
- Suspension outcome ([2]; 50 mg in 1.5 mL THF): Slurry
- Suspension outcome ([2]; 50 mg in 1.5 mL Toluene): Slurry
- Suspension outcome ([2]; 50 mg in 1.5 mL n-hexane): Slurry
- Suspension outcome ([2]; 50 mg in 1.5 mL n-pentane): Slurry
